Source: patent publication EP2077260B1, “AMIDE COMPOUND OR SALT THEREOF, AND BIOFILM FORMATION INHIBITOR, BIOFILM REMOVER AND BACTERICIDE EACH USING THE AMIDE COMPOUND OR SALT THEREOF” (The University of Tokyo, priority 2006, dated 2008)
≈ marks a conversion by molar mass, not a printed value. Read-outs that look alike come from different tables or passages of the source.

Columns and labels:
[1] = tested on: Pseudomonas aeruginosa ATCC 27853; experiment: Evaluation test for disinfecting effect, broth dilution method CLSI(M7-A7)2006; assay type: cell-based; conditions: 37°C, 18 hours
From the text: (§1) The following test compounds were examined for the disinfecting activities against Pseudomonas aeruginosa, E.. Coli and staphylococcus aureus, according to a broth dilution method of "CLSI(M7-A7)2006" (Clinical and Laboratory Standards Institute, M7-A7, Methods for Dilution Antimicrobial Susceptibility Tests for Bacteria That Grow Aerobically; Approved Standard-Seventh Edition, 2006),
(§2) • Pseudomonas aeruginosa PAO1 • Pseudomonas aeruginosa ATCC 27853 • Escherichia coli ATCC 25922 • Staphylococcus aureus ATCC 29213 • Staphylococcus aureus Methicillin resistant (MRSA) ATCC 43300
(§3) Each of above-mentioned bacteria was inoculated in a TSB culture medium (Bacto TSB Broth, product of BD) for overnight cultivation at 37°C. The culture solution was applied to a TSB agar plate for about a 20-hour cultivation to form colonies. Three to five colonies were taken from the agar plate, and an average colony of them was inoculated in a 4mL TSB culture medium.. The colony was cultivated at 35°C until the number of microorganisms became 1 × 10^8 to 2 x 10^8 CFU/mL. The number of microorganisms with time was found by measuring changes in absorbency at 590nm of culture solution with time. When the turbidity became equivalent to 0.5 McFarland standard, it was determined that the number of microorganisms reached the target level = 1 × 10^8 to 2 × 10^8 CFU/mL.
(§4) The bacillus culture solution thus obtained was diluted 10-fold within 15 minutes, and a 5µL portion was inoculated in each well of an evaluation 96-well microplate. This 96-well microplate was a sterilized 96-well microplate with U-shaped bottoms (Falcon 35-3918: product of BD), and each well was filled with a 100µL portion of MH culture medium (BBL MH Broth: product of BD). Within 15 minutes after inoculation of the bacillus culture solutions, the test compounds were supplied to the well in a manner of 2-fold graded dilution. The cultivation was then carried out at 37°C for 18 hours.
(§5) The MIC was determined as follows. "S (susceptible)" indicates a concentration which caused 80% or more reduction in the diameter of the aggregation deposited in the bottom of the well, compared to when the test liquid is not used. "R (Resistant)" indicates a concentration that caused less than 80% reduction in diameter. The reduction was measured visually.. "I(Intermediate)" indicates a concentration that cannot be measured visually

[2] = tested on: Pseudomonas aeruginosa PAO1; experiment: as above; assay type: cell-based; conditions: 37°C, 18 hours
From the text: as §1, §2, §3, §4, §5

[3] = tested on: Staphylococcus aureus ATCC 29213; experiment: as above; assay type: cell-based; conditions: 37°C, 18 hours
From the text: as §1, §2, §3, §4, §5

[4] = tested on: Escherichia coli ATCC 25922; experiment: as above; assay type: cell-based; conditions: 37°C, 18 hours
From the text: as §1, §2, §3, §4, §5

[5] = tested on: Staphylococcus aureus Methicillin resistant (MRSA) ATCC 43300; experiment: as above; assay type: cell-based; conditions: 37°C, 18 hours
From the text: as §1, §2, §3, §4, §5

[6] = tested on: Staphylococcus aureus ATCC 29213; conditions: Publicly-known data, CLSI(M100-S16)2006 liquid dilution method; cited from earlier work
[7] = tested on: Porphyromonas gingivalis 381-strain (clinical strain); experiment: Evaluation test for biofilm formation inhibition effect against periodontitis pathogenic bacteria (flow cell system, HA disks, turbidity); assay type: cell-based; conditions: for Mean OD Value: turbidity at 550 nm of biofilm peeled off HA disks; for inhibition at 100 µM: Porphyromonas gingivalis, 336 h, read-out: Biofilm Formation Inhibition Rate(%)
Procedure: As with Experiment Example 1, using the flow cell system of FIG. 1, an inhibitory effect against biofilm formation by periodontitis pathogenic bacteria was evaluated for each of the amide compounds produced in Production Examples 1, 3, 5, and 6 (Compounds 1a-1, 1b-1, 1c-1, 1c-2).
Periodontitis pathogenic bacteria Porphyromonas gingivalis 381-strain (clinical strain) was used..
A GAM culture medium containing hemin 5µg/L and menadione 1µg/L was used.
The 381-strain was inoculated in the GAM culture medium, and cultivated until stationary phase (OD550=1.8). Then the culture medium was diluted 20-fold by a fresh GAM culture medium containing the above-mentioned substances.
The test liquid was prepared by dissolving 100µM of each of the Compounds 1a-1, 1b-1, 1c-1, or 1c-2 according to Production Examples 1, 3, 5 and 6 and 100µM of Comparative Compounds 1 and 2 as comparative examples in dimethyl sulfoxide (DMSO), and supplying the resulting DMSO solutions to the above-mentioned bacterial suspensions so that the concentration of each compound becomes 0.1%(v/v).
A DMSO not containing the compound was used as a control test liquid.
The glass cell (4) of the flow cell system (see FIG. 1) was replaced with a stainless cell (3 x 7 x 120mm), and 10 hydroxyapatite (HA) disks (6mm in diameter, 1mm in thickness) were placed in the cell. The HA disks had been subjected to salivary treatment overnight. Each of the test liquids and control test liquids was circulated in the system at a flow rate of 8mL/min for 14 days, Note that the test liquids and the control test liquids were replaced with fresh liquids every two days.
After the cultivation, the HA disks were dipped in 300µL of sterile distilled water, and treated by supersonic wave for 30 minutes at 4°C, The biofilms formed in the HA disks were peeled off and suspended in distilled water. Then, 100µL of the suspension liquid was measured for the turbidity with an absorptiometer (C07500 colorimeter, product of Funakoshi) (measurement wavelength = 550 nm).
A mean OD was found based on the resulting OD values, excluding the minimum and maximum values, Also, a mean value of the turbidities for the Control Test Liquids was found in the same manner as the control mean OD value. A biofilm formation inhibition rate (Inhibition Rate) was found by the following formula. Biofilm Formation Inhibition Rate (%) = […] [formula]

[8] = ATCC27853, I (Intermediate): concentration that cannot be measured visually, read-out: MIC (µg/mL) I
[9] = ATCC27853, R (Resistant): concentration that caused less than 80% reduction in diameter of the aggregation, read-out: MIC (µg/mL) R
[10] = ATCC27853, S (susceptible): concentration which caused 80% or more reduction in diameter of the aggregation, read-out: MIC (µg/mL) S
[11] = PAO1, R (Resistant): concentration that caused less than 80% reduction in diameter of the aggregation, read-out: MIC (µg/mL) R
[12] = PAO1, S (susceptible): concentration which caused 80% or more reduction in diameter of the aggregation, read-out: MIC (µg/mL) S
[13] = ATCC29213, R (Resistant): concentration that caused less than 80% reduction in diameter of the aggregation, read-out: MIC (µg/mL) R
[14] = ATCC29213, S (susceptible): concentration which caused 80% or more reduction in diameter of the aggregation, read-out: MIC (µg/mL) S
[15] = ATCC25922, I (Intermediate): concentration that cannot be measured visually, read-out: MIC (µg/mL) I
[16] = ATCC25922, R (Resistant): concentration that caused less than 80% reduction in diameter of the aggregation, read-out: MIC (µg/mL) R
[17] = ATCC25922, S (susceptible): concentration which caused 80% or more reduction in diameter of the aggregation, read-out: MIC (µg/mL) S
[18] = R (Resistant): concentration that caused less than 80% reduction in diameter of the aggregation, read-out: MIC (µg/mL) R

MIC [1, 8] [µg/mL] | MIC [1, 9] [µg/mL] | MIC [1, 10] [µg/mL] | MIC [2, 11] [µg/mL] | MIC [2, 12] [µg/mL] | MIC [3, 13] [µg/mL] | MIC [3, 14] [µg/mL] | MIC [4, 15] [µg/mL] | MIC [4, 16] [µg/mL] | MIC [4, 17] [µg/mL] | MIC [5, 18] [µg/mL] | Structure (SMILES) | Mean OD Value ([7]; 100µM, 14 days) | inhibition at 100 µM [7] [%] | other results
64 (≈ 85.4 µM) | ≤ 32 | ≥ 128 | ≤ 32 | ≥ 128 | ≤ 0.5 | ≥ 2 | 4 (≈ 5.34 µM) | ≤ 2 | ≥ 8 | ≤ 1020 | CC[C@H]1OC(=O)[C@H](C)[C@@H](O[C@H]2C[C@@](C)(OC)[C@@H](O)[C@H](C)O2)[C@H](C)[C@@H](O[C@@H]2O[C@H](C)C[C@H](N(C)C)[C@H]2O)[C@](C)(O)C[C@@H](C)CN(C)[C@H](C)[C@@H](O)[C@]1(C)O [AZM, Azithromycin] | – | – | MIC ([2]; PAO1, I (Intermediate): concentration that cannot be measured visually, read-out: MIC (µg/mL) I): 64 µg/mL (≈ 85.4 µM); MIC ([3]; ATCC29213, I (Intermediate): concentration that cannot be measured visually, read-out: MIC (µg/mL) I): 1 µg/mL (≈ 1.34 µM); MIC (µg/mL) from M100-S16 [6]: 0.5 to 2 µg/mL
128 (≈ 338 µM) | ≤ 64 | ≥ 256 | ≤ 64 | ≥ 128 | ≤ 8 | ≥ 16 | 16 (≈ 42.3 µM) | ≤ 8 | ≥ 32 | ≤ 16 | CC1(C)S[C@@H]2[C@H](NC(=O)C(C(=O)O)c3ccccc3)C(=O)N2[C@H]1C(=O)O (stereo partly drawn) [CBPC, Carbenicillin] | – | – | MIC ([5]; I (Intermediate): concentration that cannot be measured visually, read-out: MIC (µg/mL) I): 32 µg/mL (≈ 84.6 µM); MIC ([5]; S (susceptible): concentration which caused 80% or more reduction in diameter of the aggregation, read-out: MIC (µg/mL) S): ≥ 64 µg/mL
– | – | – | – | – | – | – | – | – | – | – | CCCCCCCCCCCC(=O)NC1CCNC1 (stereo not drawn) [Compound 1a-1, N-(pyrrolidin-3-yl) dodecanoyl amide] | 0.49 | 37.4 | –
– | – | – | – | – | – | – | – | – | – | – | CCCCCCCCCCCC(=O)NC1CCNCC1 [Compound 1b-1, N-(piperidin-4-yl) dodecanoyl amide] | 0.32 | 19.1 | –
– | – | – | – | – | – | – | – | – | – | – | CCCCCCCCCCCC(=O)NN1CCCC1 [Compound 1c-1, N-(pyrrolidin-1-yl) dodecanoyl amide] | 0.522 | – | inhibition at 100 µM ([7]; 100µM, 14 days, relative to control test liquid (Mean Comparison OD Value)): 11%
